The values that follow are results of earlier work, collected in patent US4374828A, “Biologically active thymones from the thymus” (Board of Reagents, The University of Texas System, priority 1980, dated 1983).

The test system of one data set is murine prothymocytes. The conditions noted are these: in vitro.
In data set [1] the test system is cells which had a B-lineage. The settings on record: in vitro.

For the substance “(H) Arg^32 -Lys^33 -Asp^34 -Val^35 -Tyr^36 -OH [pentapeptide]”, the “Differentiation of prothymocytes to thymocytes (in words)” value with murine prothymocytes was “induced, in vitro, differentiation of murine prothymocytes to thymocytes”. Moreover, the “Differential induction of B-lineage cells (in words)” value in data set [1] is “inhibited, in vitro, the differential induction of cells which had a B-lineage”.
Regarding “NH2 -Ser-Glu-Phe-Leu-Glu^5 -Asp-Pro-Ser-Val-Leu^10 -Thr-Lys-Glu-Lys-Leu^15 -Lys-Ser-Glu-Leu-Val^20 -Ala-Asn-Val-Thr^25 -Leu-Pro-Ala-Gly-Glu^30 -Gln-Arg-Lys-Asp-Val^35 -Tyr-Val-Gln-Leu-Tyr^40 -Leu-Gln-Thr-Leu-Thr^45 -Ala-Val-Lys-Arg^49 -COOH (H-SEFLEDPSVLTKEKLKSELVANVTLPAGEQRKDVYVQLYLQTLTAVKR-OH) [thymin II, polypeptide of bovine thymin, renamed thymopoietin II]”, in the data set on marrow cells, the “Induction of marrow cells (in words)” value is on record as “induce marrow cells to develop as intrathymic lymphocytes”.
Take “thymopoietin: a preparation of thymopoietin”: the “Immune function of spleen cells (in words)” value in the data set on spleen cells of old mice is recorded as “increased the immune function of the spleen cells of old mice”.
